For one data set, the target named is T1, xlσ1R wild-type (Xenopus laevis, UniProt Q6DCU6).
T1 construct: hemagglutinin signal peptide (N); made in house; host or cells: Pichia pastoris GS115
T1 sequence (Q6DCU6 1-221): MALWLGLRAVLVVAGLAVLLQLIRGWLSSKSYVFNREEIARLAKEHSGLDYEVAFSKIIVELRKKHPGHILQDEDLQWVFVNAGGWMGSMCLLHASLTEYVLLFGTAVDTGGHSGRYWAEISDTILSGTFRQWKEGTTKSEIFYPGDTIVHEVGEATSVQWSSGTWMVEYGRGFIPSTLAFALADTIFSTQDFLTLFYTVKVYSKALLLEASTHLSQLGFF
Nature of the data set: Microscale thermophoresis (MST) binding to xlσ1R wild-type.

The next data set addresses σ1R. To be noted: cited from earlier work; for Ki: inhibition of radioligand (e.g. [3H]SKF-10,047) binding to σ1R.
The next data set addresses T2, xlσ1R E169A (Xenopus laevis, UniProt Q6DCU6, E169A).
T2 construct: hemagglutinin signal peptide (N); made in house; host or cells: Pichia pastoris GS115
T2 sequence (Q6DCU6 1-221 E169A): T1 sequence (Q6DCU6 1-221) with E169A
The experiment in a line: Microscale thermophoresis (MST) binding to xlσ1R E169A mutant. For orientation: Microscale thermophoresis detects binding through changes in fluorescence in a small temperature gradient.

Data set [1] concerns the molecule itself. Nature of the data set: crystal structure; sitting-drop vapour diffusion at 20 °C; 0.32 M LiCl, 0.1 M sodium citrate pH 5.5, 12% PEG 4000, 10% glycerol, 15 mM sodium cholate; protein in OG/CHS; no ligand added, or with 1 mM progesterone or 1 mM DHEAS; space groups I432 (trimer by crystal symmetry) and C2 (two trimers in the asymmetric unit).

Residue numbers refer to the chain shown, from its start. Counter-ions that a name gives are not always drawn. Like-named read-outs stand apart in the source and are kept apart here.

Broadly, the Kd is a measure of binding affinity in units of concentration. Usually stoichiometry N stands for a count of units in the complex or per binding partner.

In the case of `CCCCCCCCO[C@@H]1O[C@H](CO)[C@@H](O)[C@H](O)[C@H]1O` [OG, octyl-β-D-glucopyranoside], the dissociation constant Kd on xlσ1R wild-type (MST binding assay, xlσ1R, printed only in peer review file, OG data removed from final manuscript, read-out: Kd) is 8300 ± 2700 µM.

As to `CC12CCC3C(CC=C4CC(OS(=O)(=O)O)CCC43C)C1CCC2=O` (stereo not drawn) [DHEAS, dehydroepiandrosterone sulfate], the Ki result on σ1R is “micromolar range or more”. The Kd on xlσ1R wild-type (read-out: Kd (mean), MST, wild-type xlσ1R, N = 3, mean (± SD)) turned out to be 18 ± 2.5 µM; on xlσ1R wild-type (read-out: Kd Mean, Source Data sheet Supplementary Table 3, wild-type, mean of 3) it was 18 µM; on xlσ1R wild-type (read-out: Kd Repeat 1, Source Data sheet Supplementary Table 3, wild-type, repeat 1), 17.2 µM; on xlσ1R wild-type (read-out: Kd Repeat 2, Source Data sheet Supplementary Table 3, wild-type, repeat 2), 15.9 µM; at xlσ1R wild-type (read-out: Kd Repeat 3, Source Data sheet Supplementary Table 3, wild-type, repeat 3) it was 20.8 µM; on xlσ1R E169A (read-out: Kd (mean), MST, xlσ1R E169A, N = 3, mean (± SD)), 456 ± 17 µM. Further, the Kd stood at 456 µM at xlσ1R E169A (read-out: Kd Mean, Source Data sheet Supplementary Table 3, E169A, mean of 3); 471 µM at xlσ1R E169A (read-out: Kd Repeat 1, Source Data sheet Supplementary Table 3, E169A, repeat 1); 438 µM at xlσ1R E169A (read-out: Kd Repeat 2, Source Data sheet Supplementary Table 3, E169A, repeat 2); 460 µM at xlσ1R E169A (read-out: Kd Repeat 3, Source Data sheet Supplementary Table 3, E169A, repeat 3).

Consider `C[C@]12CC[C@H](O)CC1=CC[C@@H]1[C@@H]2CC[C@]2(C)C(=O)CC[C@@H]12` [DHEA, dehydroepiandrosterone], for which the Ki entry at σ1R is on record as “micromolar range or more”.

With pregnenolone sulfate, the Ki result at σ1R is reported as “micromolar range or more”.

Regarding `CC(=O)[C@H]1CC[C@H]2[C@@H]3CCC4=CC(=O)CC[C@]4(C)[C@H]3CC[C@]12C` [progesterone], the “affinity for σ1R” value with σ1R was “in μM range”. For the same molecule, at σ1R, the Ki result is recorded as “submicromolar range”. For the same molecule, the dissociation constant Kd at xlσ1R wild-type (MST, wild-type xlσ1R, N = 3, mean (± SD), read-out: Kd (mean)) came to 0.94 ± 0.22 µM; at xlσ1R wild-type (Source Data sheet Supplementary Table 3, wild-type, repeat 1, read-out: Kd Repeat 1), 0.71 µM; on xlσ1R wild-type (Source Data sheet Supplementary Table 3, wild-type, repeat 2, read-out: Kd Repeat 2) it was 0.96 µM; on xlσ1R wild-type (Source Data sheet Supplementary Table 3, wild-type, repeat 3, read-out: Kd Repeat 3) it was 1.14 µM.

B1: sigma-1 receptor from Xenopus laevis (xlσ1R), wild type, purification tag removed (receptor)
chain: T1 sequence (Q6DCU6 1-221)
notes: sigma-1 receptor, Xenopus laevis, NCBI NP_001087013.1, wild type; the simulation methods speak of residues 1-33 (transmembrane helix) and 34-219 of the crystal model; Cloned in a modified pPICZ plasmid after a hemagglutinin signal peptide, a decahistidine tag and a TEV protease site; the tag was removed by TEV protease before crystallisation; also called xlσ1R_(unknown-lig); xlσ1R_(prog-co); not …
On to B1, for which the “stoichiometry N” value in data set [1] turned out to be 3.

Source of the values: publication PMC11224282, “Insight into binding of endogenous neurosteroid ligands to the sigma-1 receptor” (Nature Communications, 2024).
